Measured values taken from patent publication US7045550B2, “Polyamines and analogs for protecting cells during cancer chemotherapy and radiotherapy” (Wisconsin Alumni Research Foundation, priority 2001, dated 2006).

Key:
[1] = tested on: rat pups challenged with cytoxan; test: Cytoxan (CTX)-induced alopecia model in rat pups, topical polyamine effector; type: in vivo, Sprague Dawley rat; details: for efficacy in the rat alopecia and/or dermatitis model: Examples 6, 7 and 8
Experimental: (§1) Induction of alopecia by cytoxan (CTX). Lactating Sprague Dawley mother rats with rat pups were purchased from Harlan Sprague Dawley (Indianapolis, Ind.). The mother rats were given food and water ad libitum. The rats pups were tested in the model of chemotherapy-induced alopecia described by Hussein A. M. et al., Science: 249, 1564 (1990). Cytoxan (CTX), a chemotherapeutic widely used in the treatment of cancer, was used to induce alopecia in the rats. A common side effect of cytoxan in patients is alopecia. Cytoxan and polyamine effector compounds were purchased from Sigma Chemicals Co. (St. Louis, Mo.). To produce CTX-induced alopecia, 7 to 10 day old rat pups were injected i.p. with 35 mg/kg of CTX prepared in phosphate-buffered saline. To produce reproducible CTX induced alopecia, we first tested several concentrations (35, 40, 45 ug/gm body weight) of CTX in phosphate-buffered saline (PBS), which was injected i.p. in 7–10 day old pups. Seven to ten days after CTX treatment the pups were examined to determine the degree of hair loss. The density of hair on the pups was then determined. 100% hair density represents that found on the untreated control pups while 0% represented pups with total hair loss. It was observed that 35 ug/gm of CTX was sufficient to induce 100% hair loss approximately 7 days after cytoxan challenge, and this concentration was used in subsequent experiments.
Different types of polyamine effector agents were tested in this model. The effectors were prepared in a delivery vehicle, consisting of from 60–100% ethanol in water, depending on the solubility of the compound. The compounds in ethanol/water solution from 50–150 μl in volume were topically administered to the backs of the pups once per day before and after CTX challenge. Using a micropipette, the formulation was applied to approximately 2 cm^2 section of skin to the backs of the rat pups. Specifically, the pups were treated once daily for the 4–5 days before CTX challenge, once on the day of CTX challenge and once daily for 5 days afterwards. Control groups consisted of pups receiving only delivery vehicle. Control groups treated with delivery vehicle were tested as part of every treatment study. Two or more animals were tested per group in both the control and test groups.
Approximately 7 to 10 days after CTX treatment, the pups were evaluated for alopecia. Hair loss was evaluated using a modified alopecia-scoring index described by Chen G. et al., Int. J. Cancer: 75, 303 (1998). A score of 0=no hair loss; a score of 1=10–30% hair loss; a score of 2=40–60% hair loss; a score of 3=70–90% hair loss; and a score of 4=100% hair loss.
as §1, with “It was observed that 35 ug/gm of CTX was sufficient to induce 100% hair loss approximately 7 days after cytoxan challenge, and this concentration was used in subsequent experiments.” left out

[2] = tested on: rats exposed to radiation; test: Radiation-induced dermatitis model in rats (15 Gy), topical polyamine effector; type: in vivo, Sprague Dawley rat; details: for Avg dermatitis score: 15 Gy, vehicle 3.0
Experimental: To determine if treatment with a polyamine effector could effectively prevent radiation-induced dermatitis, adult rats were topically treated with several different classes of polyamine effectors before and after radiation treatment. Rats were exposed to medically relevant levels of radiation that could induce clinical radiation dermatitis. Sprague Dawley rats (Harlen Spraque Dawley) at 4–6 weeks-old were anesthetized with sodium pentobarbital at 40 mg/kg body weight (Sigma, St. Louis, Mo.) prior to radiation exposure. A defined, depilated area on the backs of rats was irradiated using a Mark I, Model 30, Cs 137 irradiator (J. L. Sheppard & Associates). Briefly, the back was stripped of hair to expose the skin using a 1:1 rosin/beeswax mixture. The rest of the body was protected from radiation exposure using a lead shield. A dose response study was initially preformed to reproduce relevant dermatitis that matched the Grade (I–IV) scale used to score the severity of radiation-induced dermatitis in the clinical setting. Radiation doses of 5–7 Gray (1 Gray (Gy)=[…]) produced Grade I dermatitis within 8–10 days. Radiation doses of 7–10 Gy produced Grade II dermatitis within 8–10 days. After 8–10 days, severe radiation dermatitis was produced at 20–25 Gy (Grade III dermatitis) or at 30–35 Gy (Grade IV). Radiation dermatitis of Grade II–III was considered most clinically relevant, so a radiation challenge dose of 15 Gy in the rats was used in subsequent treatment experiments. The stripped back region on the rats was treated topically with 10–50 mM polyamine effector once daily for 5 days before and 5 days after radiation challenge.
Different classes (natural polyamines and biosynthetic inhibitors) of polyamine effector agents were tested in this model. The polyamine effector compounds were purchased from Sigma Chemicals Co. (St. Louis, Mo.), except Vaniqa, a commercially available cream containing DFMO at 13.9% ([…]). The effectors were prepared in a delivery vehicle, consisting of from 60–100% ethanol in water, depending on the solubility of the compound. The compounds in ethanol/water solution from 100–150 μl in volume were topically administered to the stripped region. Rats treated with only the delivery vehicle served as controls. Eight to ten days post-radiation challenge, the rats were evaluated for dermatitis using a modified scoring scale described by Masuda K. et al. Int. J. Radiation Oncol. Biol. Phys: 12, 1645 (1986). Dermatitis score of 0=normal, 1=slight redness, scaly skin with no focal lesions, 2=moderate redness, breakdown of larger area, some small focal lesions, 3=skin very red, breakdown of most of the irradiated area, large ulcers and crusty lesions, 4=skin very red, breakdown of the entire irradiated area, severe exudation and large crusty lesions.
To determine if treatment with a non-natural polyamine analog could effectively prevent radiation-induced dermatitis, adult rats were topically treated with a polyamine analog before and after radiation treatment. Rats were exposed to medically relevant levels of radiation that could induce clinical radiation dermatitis. Sprague Dawley rats (Harlan Spraque Dawley) at 4–6 weeks old were anesthetized with sodium pentobarbital at 40 mg/kg body weight (Sigma, St. Louis, Mo.) prior to radiation exposure. A defined, depilated area on the backs of rats was irradiated using a Mark I, Model 30, Cs 137 irradiator (J. L. Sheppard & Associates). Briefly, back hair was removed to expose the skin by using Oster electric clippers followed by a safety razor. The rest of the body was protected from radiation exposure using a lead shield. A dose response study was initially preformed to reproduce relevant dermatitis that matched the Grade (I–IV) scale used to score the severity of radiation-induced dermatitis in the clinical setting. Radiation doses of 5–7 Gray (1 Gray (Gy)=[…]) produced Grade I dermatitis within 8–10 days. […]

DNA = details: in vitro; Basu et al. 1993; cited from earlier work
[3] = tested on: rat pups challenged with cytarbine; test: Cytarbine-induced alopecia model in rat pups; type: in vivo; details: treatment (1 mM), vehicle 4.0
Description: (§2) Alopecia was induced in rat pups by Cytoxan, cytarbine, doxorubicin and radiation, according to the methods described in the previous examples. Polyamines from three different structural families, obtained from two different sources, gave excellent results in animal alopecia models for Cytoxan, cytarbine and doxorubicin.

[4] = tested on: rat pups challenged with doxorubicin; test: Doxorubicin-induced alopecia model in rat pups; type: in vivo; details: vehicle 4.0
Description: as §2

[5] = 1 mM topical (Example 1), scale 0-4, vehicle 4.0
[6] = 5 mM topical (Example 1), scale 0-4, vehicle 4.0
[7] = 10 mM topical, scale 0-4, vehicle 4.0
[8] = 20 mM topical, scale 0-4, vehicle 4.0
[9] = 10 mM in ethanol/water, scale 0-4
[10] = Example 1, concentrations tested
[11] = 50 mM topical, scale 0-4, vehicle 4.0
[12] = 50 mM in ethanol/water, scale 0-4
[13] = Example 6, 5 mM in 70% ethanol, topical, scale 0-4, vehicle 4.0

## Cl.NCCC[C@](N)(C(=O)O)C(F)F (racemic) [DFMO, DL-Alpha Difluoromethylornithine HCl, reference compound]
[1]; [5]
  Avg Alopecia Score: 4.0
[1]; [6]
  Avg Alopecia Score: 2.0
[1]; [7]
  Avg Alopecia Score: 2.0
[1]; [8]
  Avg Alopecia Score: 3.5
[1]; Example 1, 5–10 mM
  effect on CTX-induced alopecia: effectively prevented alopecia
[2]; [9]
  Avg dermatitis score: 2.5

## N=C(N)NCCCCN [Agmatine]
[1]; [5]
  Avg Alopecia Score: 3.0
[1]; [7]
  Avg Alopecia Score: 3.0
[1]; [10]
  effect on CTX-induced alopecia: reduced, but did not prevent alopecia
[2]; [9]
  Avg dermatitis score: 1.8
[2]; 20 mM in ethanol/water, scale 0 (normal) to 4
  Avg dermatitis score: 2.0

## C[C@](N)(CCCN)C(=O)O [Alpha-Methyl ornithine, reference compound]
[1]; [6]
  Avg Alopecia Score: 4.0
[1]; [8]
  Avg Alopecia Score: 4.0
[1]; [10]
  effect on CTX-induced alopecia: did not prevent hair loss

## CCNCCCNCCCNCCCNCC [BE-3-3-3, N1, N11-bis (ethyl) norspermine]
[1]; [5]
  Avg Alopecia Score: 2.7
[1]; [6]
  Avg Alopecia Score: 2.3
[1]; [8]
  Avg Alopecia Score: 1.7
[1]; Expt. 1, 1 mM, vehicle 4.0 +/- 0.0
  Alopecia Score +/- SEM: 3.5 +/− 0.7
[1]; Expt. 1, 10 mM, vehicle 4.0 +/- 0.0
  Alopecia Score +/- SEM: 1.5 +/− 0.7
[1]; Expt. 2, 1 mM, vehicle 3.5 +/- 0.7
  Alopecia Score +/- SEM: 2.5 +/− 0.3
[1]; Expt. 2, 10 mM, vehicle 3.5 +/- 0.7
  Alopecia Score +/- SEM: 0.25 +/− 0.3
[1]; Expt. 3, 1 mM, vehicle 4.0 +/- 0.0
  Alopecia Score +/- SEM: 2.7 +/− 0.4
[1]; Expt. 3, 10 mM, vehicle 4.0 +/- 0.0
  Alopecia Score +/- SEM: 2.0 +/− 0.3
[1]; Table 15, several data sets at multiple concentrations
  Avg Alopecia Score: 0.3–1.5

## CCNCCCCNCCCCNCCCCNCC [BE-4-4-4, 1N,14N-Bisethylhomospermine]
DNA
  DNA binding and aggregation: binds to DNA in vitro but does not aggregate it

## CCNCCCCNCCCCNCCCCNCCCCNCC [BE-4-4-4-4, 3,8,13,18,23-Pentaazapentacosane]
DNA
  DNA binding and aggregation: both binds DNA and aggregates it

## NCCCCCN [Cadaverine]
[1]; [6]
  Avg Alopecia Score: 4.0
[1]; [11]
  Avg Alopecia Score: 2.5

## NC(=NCCC[C@H](N)C(=O)O)NO [NOHA, NG-hydroxy-arginine]
[1]; [6]
  Avg Alopecia Score: 2.75

## NCCCNCCCN [Norspermidine]
[1]; [6]
  Avg Alopecia Score: 4.0
[1]; [11]
  Avg Alopecia Score: 2.0

## NCCCCN [Putrescine]
[1]; 2 mM topical, scale 0-4, vehicle 4.0
  Avg Alopecia Score: 3.0
[1]; [6]
  Avg Alopecia Score: 2.5
[1]; [7]
  Avg Alopecia Score: 2.0
[1]; [11]
  Avg Alopecia Score: 1.5
[2]; [12]
  Avg dermatitis score: 3.0

## CCNCCCNCC1CC1CNCCCNCC (stereo not drawn) [SL-11038]
[1]; 5 mM
  efficacy in the rat alopecia and/or dermatitis model: showed efficacy
[1]; [13]
  Avg Alopecia Score: 3.5

## CCNCCCNCC1CCC1CNCCCNCC (stereo not drawn) [SL-11044]
[1]; [13]
  Avg Alopecia Score: 2.5

## CCNCCCNCC#CCNCCCNCC [SL-11091]
[1]; [13]
  Avg Alopecia Score: 3.0

## CNCCCNCC#CCNCCCNC [SL-11092]
[1]; 5 mM
  efficacy in the rat alopecia and/or dermatitis model: showed efficacy
[1]; Table 10, treatment (1 mM), vehicle 4.0
  Avg Alopecia Score: 0.0
[1]; Table 15, cytoxan-induced, re-screening summary
  Avg Alopecia Score: 0.0

## CCNCCCCNCC#CCNCCCCNCC [SL-11103]
[1]; 5 mM
  efficacy in the rat alopecia and/or dermatitis model: showed efficacy

## CCNCCCCNCCCCNCCCCNCCCCNCCO [SL-11141]
[1]; 5 mM
  efficacy in the rat alopecia and/or dermatitis model: showed efficacy
[1]; Example 6, 5 mM
  effectiveness at preventing alopecia after CTX treatment: less effective
[1]; [13]
  Avg Alopecia Score: 3.3

## CCNCCCCNCCCCNCCCCNCCCCNC/C=C/CNCCCCNCCCCNCCCCNCCCCNCC [SL-11144]
[3]
  Avg Alopecia Scores: 3.0
[4]
  Avg Alopecia Score: 0.0
[1]; 5 mM, versus naturally-occurring polyamines or simple polyamine analogs
  activity in both the alopecia and dermatitis models: overall greater activity

## NCCCCNCCCN [Spermidine]
[1]; [7]
  Avg Alopecia Score: 2.0
[1]; [11]
  Avg Alopecia Score: 3.5

## NCCCNCCCCNCCCN [Spermine]
[1]; [8]
  Avg Alopecia Score: 3.0
[1]; [11]
  Avg Alopecia Score: 2.0
[1]; 100 mM topical once daily in ethanol/water, scale 0 (no hair loss) to 4 (100% hair loss), vehicle 4.0
  Avg Alopecia Score: 0.0
[2]; [12]
  Avg dermatitis score: 2.8

## NCCCNCCSP(=O)(O)O [amifostine, S-2-(3-aminopropylamino) ethylphoshorothioic acid, reference compound]
[2]; radiation-induced dermatitis assay, as compared with putrescine
  radioprotective activity: good radioprotective activity
